In the NIST ThermoML archive (doi:10.1007/s10765-011-1087-7):

What was measured:
[1] = xn = mol fraction of the nth substance listed; settings: 101 kPa, Liquid; for speed of sound: Pulse-echo method
[2] = refractive index (Na D-line) (dimensionless); xn = mol fraction of the nth substance listed; settings: 101 kPa, Liquid

Clc1ccc(Cl)c(Cl)c1 [1,2,4-trichlorobenzene] + CCCCCCC(C)O
Settings | mass density, [1] [kg/m3] | refractive index, [2] | speed of sound, [1] [m/s] | viscosity, [1] [mPa·s]
298.15 K, x1 = 0.0762 | 863.97 | 1.4309 | 1301.7 | 5.912
298.15 K, x1 = 0.1303 | 896.31 | 1.4366 | 1296.7 | 5.452
298.15 K, x1 = 0.2045 | 939.57 | 1.4436 | 1290.1 | 4.912
298.15 K, x1 = 0.2713 | 977.28 | 1.4501 | 1283.7 | 4.455
298.15 K, x1 = 0.3461 | 1018.61 | 1.4569 | 1278 | 3.981
298.15 K, x1 = 0.4173 | 1057.62 | 1.4631 | 1273.2 | 3.575
298.15 K, x1 = 0.4857 | 1095.63 | 1.4698 | 1269.8 | 3.223
298.15 K, x1 = 0.5454 | 1129.39 | 1.4758 | 1267 | 2.955
298.15 K, x1 = 0.6115 | 1167.72 | 1.4834 | 1264.2 | 2.699
298.15 K, x1 = 0.6798 | 1209.26 | 1.4919 | 1261.9 | 2.462
298.15 K, x1 = 0.7466 | 1252.54 | 1.5009 | 1259.9 | 2.281
298.15 K, x1 = 0.8183 | 1302 | 1.5119 | 1259.2 | 2.118
298.15 K, x1 = 0.8713 | 1341.45 | 1.521 | 1260.4 | 2.035
298.15 K, x1 = 0.9361 | 1392.95 | 1.534 | 1264.2 | 1.945
298.15 K, x1 = 1 | 1448.41 | 1.548 | 1272 | 1.926
303.15 K, x1 = 0.0762 | 860.11 | 1.4285 | 1283.9 | 4.79
303.15 K, x1 = 0.1303 | 892.4 | 1.4337 | 1279.1 | 4.507
303.15 K, x1 = 0.2045 | 935.51 | 1.4406 | 1273 | 4.124
303.15 K, x1 = 0.2713 | 973.11 | 1.4469 | 1266.9 | 3.783
303.15 K, x1 = 0.3461 | 1014.26 | 1.4539 | 1261.6 | 3.433
303.15 K, x1 = 0.4173 | 1053.06 | 1.4607 | 1256.9 | 3.12
303.15 K, x1 = 0.4857 | 1090.83 | 1.4676 | 1253.5 | 2.849
303.15 K, x1 = 0.5454 | 1124.39 | 1.474 | 1250.5 | 2.632
303.15 K, x1 = 0.6115 | 1162.51 | 1.4818 | 1248 | 2.405
303.15 K, x1 = 0.6798 | 1203.8 | 1.4905 | 1245.6 | 2.205
303.15 K, x1 = 0.7466 | 1246.93 | 1.4999 | 1244.1 | 2.045
303.15 K, x1 = 0.8183 | 1296.19 | 1.511 | 1243.5 | 1.909
303.15 K, x1 = 0.8713 | 1335.49 | 1.5202 | 1244.9 | 1.821
303.15 K, x1 = 0.9361 | 1386.92 | 1.5329 | 1248.7 | 1.769
303.15 K, x1 = 1 | 1442.43 | 1.546 | 1256.4 | 1.76
308.15 K, x1 = 0.0762 | 855.92 | 1.4271 | 1266.3 | 3.886
308.15 K, x1 = 0.1303 | 887.97 | 1.4325 | 1261.9 | 3.674
308.15 K, x1 = 0.2045 | 930.81 | 1.4396 | 1255.8 | 3.413
308.15 K, x1 = 0.2713 | 968.5 | 1.4459 | 1250.3 | 3.169
308.15 K, x1 = 0.3461 | 1009.82 | 1.4525 | 1244.9 | 2.915
308.15 K, x1 = 0.4173 | 1048.71 | 1.4591 | 1240.3 | 2.674
308.15 K, x1 = 0.4857 | 1086.14 | 1.4658 | 1237.1 | 2.456
308.15 K, x1 = 0.5454 | 1119.57 | 1.4718 | 1234.6 | 2.296
308.15 K, x1 = 0.6115 | 1157.41 | 1.4792 | 1232 | 2.117
308.15 K, x1 = 0.6798 | 1198.89 | 1.4877 | 1229.9 | 1.961
308.15 K, x1 = 0.7466 | 1241.6 | 1.4969 | 1228.4 | 1.827
308.15 K, x1 = 0.8183 | 1290.6 | 1.5078 | 1228 | 1.725
308.15 K, x1 = 0.8713 | 1329.97 | 1.517 | 1229.3 | 1.666
308.15 K, x1 = 0.9361 | 1381.4 | 1.5295 | 1233.4 | 1.628
308.15 K, x1 = 1 | 1436.45 | 1.543 | 1240.9 | 1.617
